Source: PMC7708037, “Targeting OGG1 arrests cancer cell proliferation by inducing replication stress” (Nucleic Acids Research, 2020)

Key:
A3 cells = assay: Annexin V-staining (apoptosis); format: cell-based, human; conditions: 72 h
Protocol: The annexin V staining experiment was performed using BD Pharmingen FITC Annexin V Apoptosis Detection Kit I (cat.no 556547) according to the protocol given in the kit. Cells were washed with ice-cold PBS and then washed with 1X Annexin buffer diluted in ice-cold PBS. To the washed pellet of cells, PI and FITC Annexin V dye was added and incubated at room temperature in dark for 15 mins. After the incubation, 400 µl of annexin buffer was added and run in Navios flow cytometer (Beckman Coulter) to detect the apoptosis with blue laser(488 nm, filter 525/40 nm) and dead cells with blue laser(488 nm, filter 620/30 nm). Kaluza Flow Analysis (Beckman Coulter) was used for data analysis.
Figure 4. Anticancer properties overlap between OGG1 loss and OGG1 inhibitors. (A) Viability of T-cell acute […] leukemia cell lines treated for 5 days with the indicated doses TH5487. Data are average ±SD of independent experiments (A3, n = 5; Jurkat, n = 3; MOLT-4, n = 4; CCRF-CEM, n = 3). (B) Relative cell numbers and (C) viability (%) for A3 cells treated for 5 days with 10 μM TH5487. Data are average ±SD of six replicates from three independent experiments. […] Statistical significance was determined using unpaired, two-sided t-tests (*P < 0.05, **P < 0.01, ***P < 0.001, ****P < 0.0001, ns, non-significant).

[1] = system: peripheral blood mononuclear cells (PBMCs); assay: PBMC proliferation / tolerance; format: cell-based
Protocol: Peripheral blood mononuclear Cells (PBMC) were isolated from peripheral whole blood from controls using Histopaque®-1077 (Sigma-Aldrich, San Luis, MO, USA) following the manufacturer's instructions. Briefly, peripheral blood was collected in heparin and diluted with equal amount of PBS. Next, blood was centrifuged with Histopaque®-1077 at 400 × g for 30 min at room temperature and the PBMC layer was recovered. All steps were processed within 4 h after blood extraction.
PMBCs and CD34- fraction (CB) were cultured in the presence of PHA-L (Sigma-Aldrich, ref: 11249738001) or Dynabeads® Human T-Activator CD3/CD28 (Thermofisher scientific, ref: 11131D) for the activation and expansion of human T cells according to the manufacturer's instructions. […]
experiments (Supplementary Table S1).
PBMCs from two donors were activated using Dynabeads and exposed to 10 µM TH5487 during 72 h […]
to follow cell numbers. […] CD3+ T-cells were activated with Dynabeads and treated with DMSO or TH5487 for 6 days, or 25 µM camptothecin for 24 h as a technical control. Survival was assessed by flow cytometry. Data are three technical replicates from one donor, representative of four individuals. Paired, two-sided T-tests were used to assess significance (ns, non-significant, ****, P<0.0001). I. to K. Gating strategy for identification of dead cells. CD3+ cells were stained with Annexin V and Sytox Blue. […]

[2] = system: genomic 8-oxodG in A3 cells; assay: 8-oxodG detection in genomic DNA by LC-MS/MS; format: cell-based, human; conditions: 10 μM, up to five days
Protocol: 8-oxodG detection in genomic DNA through LC–MS/MS ([39]) and single-cell electrophoresis ([40]) were performed as described.
Figure 5. Effect of TH5487 on DNA lesions, DNA damage markers and DNA replication. (A) 8-oxodG accumulation in A3 cells. A3 cells were treated with 20 mM KBrO3 for 1 h or with 10 μM TH5487 for the indicated times, and the amount of genomic 8-oxodG was quantified with LC-MS/MS. Data are average ±SD of five replicates from two independent experiments. (B) Comet assay. A3 cells were treated with 10 μM TH5487 for 72 h and strand-breaks and OGG1 substrate lesions were analyzed with the OGG1-modified Comet assay. Representative images of cells are shown. (C) Violin blot of Comet tail moment. Cells were treated as in B, and the tail moment of the cells were analyzed using blinded automatic analysis (n = 200 per condition from two independent experiments). The full line indicates median, and the dotted lines quartiles. (D) Violin blot of phosphorylated γH2AX intensity. A3 cells were treated with 0.1% DMSO or 10 μM TH5487 for the indicated times and stained for phosphorylated γH2AX. […] At least 33 000 nuclei per group were quantified from three independent experiments. […] At least 300 forks were scored per condition. Statistical significance was determined using unpaired, two-sided t-tests (**P < 0.01, ***P < 0.001 and ****P < 0.0001; ns, non-significant).

O=C(Nc1ccc(I)cc1)N1CCC(n2c(=O)[nH]c3c(Br)cccc32)CC1 [TH5487]
Apoptosis (Annexin V-propidium iodide) (A3 cells; 20 μM): more substantial
Apoptosis (Annexin V-propidium iodide) (A3 cells; 5 and 10 μM): slight but significant increase in apoptosis
Tolerance by resting and activated PBMCs ([1]; 10 μM, healthy donors): well tolerated
Proliferation of activated PBMCs ([1]; Dynabeads-activated PBMCs from two donors, 10 µM, 72 h): does not affect proliferation
Genomic 8-oxodG levels [2]: did not rise above assay background levels
